Laboratory results from patent US20140024653A1, “COMPOSITIONS AND METHODS FOR TREATING CANCER USING PI3K INHIBITOR AND MEK INHIBITOR” (priority 2011, published 2014).
Read-outs that look alike come from different tables or passages of the source.

Tests used:
PANC1 = assay: SRB cell growth assay, 72 h; type: cell-based, human; settings: single agent
[1] = system: human colon carcinoma HCT 116; assay: HCT116 tumor growth in fluorescence molecular tomography study; type: in vivo, SCID mice; settings: NS
IGROV1 = assay: SRB cell growth assay, 72 h; type: cell-based; settings: Homo sapiens, IGROV-1, most sensitive, z-score <−1.5
Protocol: (§1) Cell growth and treatment were performed in 96-well microtitre plates CELLSTAR® (Greiner Bio-One, Germany). Cells harvested from exponential phase cultures by trypsinization were plated in 150 μl of media at optimal seeding densities. The optimal seeding densities for each cell line were determined to ensure exponential growth for the duration of the experiment. All cells growing without anticancer agents were sub-confluent by the end of the treatment as determined by visual inspection.
(§2) 150 μl of cells, after a 24-hour pre-growth period, were treated by mixing with 50 μl of the compound containing media (resulting in a final DMSO concentration of 0.1%). The cells were allowed to grow at 37° C. for 72 hours. In addition, all experiments contained a few plates with cells that were processed for measurement immediately after the 24 hours recovery period. These plates contained information about the cell number that existed before treatment, at time zero, and served to calculate the cytotoxicity.
(§3) After treatment, cells were precipitated by addition of 10% TCA. Prior to fixation, the media was aspirated as described. After an hour of incubation at 4° C., the plates were washed two times with 400 μl of deionized water. Cells were then stained with 100 μl of a 0.08% wt/v SRB. The plates were allowed to sit for at least 30 min. and washed six times with 1% acetic acid to remove unbound stain. The plates were left to dry at room temperature and bound SRB was solubilized with 100 μl of 10 mM Tris base. Measurement of optical density was performed at 560 nm on a Victor 2 plate reader (Perkin Elmer, Germany). The SRB values for A375 and H460 cell lines were near to saturation (2.5 OD units) due to the high protein content of these cells, but not cell confluence. The measurements for these cells were performed at 520 nm instead of 560 nm.
(§4) Using these measurements, cellular responses can be calculated for incomplete inhibition of cell growth (GI), complete inhibition of cell growth (T GI) and net loss of cells (LC) due to compound activity. […] This is the drug concentration causing a 50% reduction compared to the net protein increase in control cells during the drug incubation period. In other words, GI50 is IC50 corrected for time zero. Similar to IC90, calculated GI90 values are also reported for all compounds tested. TGI was calculated from Ti=Tz. […] It was calculated as 100×[(Ti−Tz)/Tz]=−50. However, due to 72 hours treatment, low cell seeding density was required and LC50 could rarely be achieved.

CAKI1 = assay: SRB cell growth assay, 72 h; type: cell-based; settings: Homo sapiens, CAKI-1, most sensitive, z-score <−1.5
Protocol: as §1, §2, §3, §4

[2] = system: human pancreatic MiaPaCa-2; assay: antitumor activity against subcutaneous MiaPaCa-2 xenografts; type: in vivo, nude mice; settings: 21 days
Protocol: The human pancreatic cancer cell line MiaPaCa-2 (American Type Culture Collection, Manassas Va.), was cultured in MEM medium containing 10% fetal bovine serum, 1% essential amino acid, 1% sodium pyruvate (Life Technologies, Carlsbad, Calif.). […] Cells were re-suspended in PBS (Life Technologies, Carlsbad, Calif.) and then mixed 1:1 with Matrigel (BD Biosciences, San Jose, Calif.). Cells were stored at 4° C. until implantation. MiaPaCa-2 cells (10×10^6 in a 200 μl PBS:Matrigel (1:1) suspension) were subcutaneously injected into the right flank area of female nude (Crl:NU-Foxn1nu) mice (6-8 weeks old, Charles River Laboratories, Wilmington, Mass.). All mice in this study were used according to the guidelines approved by the EMD-Serono Institutional Care and Animal Use Committee (IACUC), #07-003. Developing tumors located in the right flank area of female nude mice were measured over time with digital calipers. […] The remaining tumor-bearing mice were randomized into seven experimental groups (n=9), so that each group had the same mean tumor volume. […] The treatments began on the seventh day following implantation of the Miapaca-2 cells, which was designated as Day 0 for data evaluation purposes. […] Body weights and tumor volumes were assessed twice per week post treatment initiation. […] Efficacy was determined by analyzing tumor volumes and the percent ΔT/ΔC (% ΔT/ΔC). Tumor volume was determined by using the tumor length (1) and width (w) measurements and calculating the volume with the equation 1*w^2/2. The length was measured along the longest axis of the tumor and width was measured perpendicular to that length. The mean percent of actual tumor growth inhibited by the treatments was calculated as follows: [% ΔT/ΔC=(([…]))×100%], where TV=tumor volume, f=final, i=initial and Ctrl=control group. Tolerability was assessed by regarding percent body weight difference during the treatment period. Percent body weight difference was calculated as follows: [% Body weight difference=(BWc-BWi)/BWi×100%], where BW=body weight, c=current, i=initial.

[3] = system: panel of 81 cancer cell lines; assay: SRB cell growth assay, 72 h, cell line panel; type: cell-based, human
90 non-kinase targets = settings: tested at 10 μM; cited from earlier work
SKOV3 = assay: SRB cell growth assay, 72 h; type: cell-based; settings: Homo sapiens, SK-OV-3, highest tested concentration 50 μM, read-out: activity (estimated)
Protocol: as §1, §2, §3, §4

SKNAS = assay: SRB cell growth assay, 72 h; type: cell-based; settings: Homo sapiens, SK-N-AS, most sensitive cell lines
Protocol: as §1, §2, §3, §4

CLS439 = assay: SRB cell growth assay, 72 h; type: cell-based; settings: Homo sapiens, highest tested concentration 50 μM, read-out: activity (estimated)
Protocol: as §1, §2, §3, §4

TE671 = assay: SRB cell growth assay, 72 h; type: cell-based; settings: Homo sapiens, TE-671, most sensitive cell lines
Protocol: as §1, §2, §3, §4

EFO21 = assay: SRB cell growth assay, 72 h; type: cell-based; settings: Homo sapiens, EFO-21, highest tested concentration 50 μM, read-out: activity (estimated)
Protocol: as §1, §2, §3, §4

PC3 = assay: SRB cell growth assay, 72 h; type: cell-based; settings: Homo sapiens, PC-3, highest tested concentration 50 μM, read-out: activity (estimated)
Protocol: as §1, §2, §3, §4

NCIH292 = assay: SRB cell growth assay, 72 h; type: cell-based; settings: Homo sapiens, NCI-H292, most sensitive cell lines
Protocol: as §1, §2, §3, §4

A375 = assay: SRB cell growth assay, 72 h; type: cell-based; settings: Homo sapiens, A-375, most sensitive cell lines
Protocol: as §1, §2, §3, §4

SMILES: CCn1c(=O)c(-c2ccn[nH]2)cc2c(C)nc(N)nc21 [Compound (2b), 2-amino-8-ethyl-4-methyl-6-(1H-pyrazol-5-yl)pyrido[2,3-d]pyrimidin-7(8H)-one]
- z-score MSC0765 (PANC1): 1.16
- ΔT/ΔC at the end of study ([1]; (2b) 20 mg/kg oral daily day 11 to day 17): 80%
- GI50 (IGROV1): < 500 nM
- GI50 (CAKI1): < 500 nM
- % ΔT/ΔC ([2]; XL-765 30 mg/kg po QD, 30 mg/kg): 77.0%
- GI50 ([3]; Homo sapiens, all 81 cell lines, log 10-transformed data): 1300 to 1400 nM
- differences in activity between sensitive and insensitive cell lines ([3]; panel): 10-20 fold

SMILES: O=C(NC[C@H](O)CO)c1ccncc1Nc1ccc(I)cc1F [Compound (1), N—((S)-2,3-dihydroxypropyl)-3-(2-fluoro-4-iodo-phenylamino)isonicotinamide]
- activity against 90 non-kinase targets (90 non-kinase targets): no activity
- z-score MSC6369 (PANC1): 3.00
- activity (cell growth inhibition) (PANC1; up to 50 μM): minimal activity
- ΔT/ΔC at the end of study ([1]; (1) 10 mg/kg oral daily day 11 to day 17): 40%
- IC50 (SKOV3): > 50000 nM
- IC50 (SKNAS): 4.8 to 8 nM
- IC50 (CLS439): > 50000 nM
- IC50 (TE671): 4.8 to 8 nM
- IC50 (EFO21): > 50000 nM
- IC50 (PC3): > 50000 nM
- IC50 (NCIH292): 4.8 to 8 nM
- IC50 (A375): 4.8 to 8 nM
- % ΔT/ΔC ([2]; AS703026 5 mg/kg po QD, 5 mg/kg): 56.2%
- cell lines sensitive below 100 nM ([3]; 82 cell lines): 27 of 82
- IC50 ([3]; Homo sapiens, median of cell lines tested, read-out: median sensitivity): 490 nM
- IC50 ([3]; Homo sapiens, sensitive cell lines of the panel, read-out: Efficacy in sensitive cell lines): 4 to 5 nM
- difference between the most and least sensitive cell lines ([3]; panel): 10.000 fold
